Laboratory results from ChEMBL document CHEMBL1137635, “Multiple antibiotics exert delayed effects against the Plasmodium falciparum apicoplast” (Antimicrob Agents Chemother, 2007).
Activity calls are given as the source filed them. The rule behind the calls is not given here.

Key:
Plasmodium falciparum [1] = assay: Antimalarial activity in chloroquine-sensitive ACP1-GFP-labeled Plasmodium falciparum 3D7 after 48 hrs at 2xIC50 dosed 96 hrs post infection; assay type: functional, organism-based
Plasmodium falciparum [2] = assay: Antimalarial activity as 2nd generation ring-stage chloroquine-resistant Plasmodium falciparum W2 after 48 hrs by flow cytometry; assay type: functional, organism-based; details: W2, 48 h
Plasmodium falciparum [3] = assay: Antimalarial activity as abnormal apicoplast morphology in chloroquine-sensitive ACP1-GFP-labeled Plasmodium falciparum 3D7 trophozoite infected human erythrocytes at 2xIC50 dosed 96 hrs post infection; assay type: functional
Plasmodium falciparum [4] = assay: Antimalarial activity as 3rd generation ring-stage chloroquine-sensitive Plasmodium falciparum 3D7 after 48 hrs dose then 48 hrs drug-free; assay type: functional, organism-based; details: 3D7, 48 h
Plasmodium falciparum [5] = assay: Antimalarial activity as abnormal apicoplast morphology in chloroquine-sensitive ACP1-GFP-labeled Plasmodium falciparum 3D7 after 48 hrs at 2xIC50 dosed 96 hrs post infection; assay type: functional, organism-based
Plasmodium falciparum [6] = assay: Antimalarial activity as segregation of apicoplasts against chloroquine-sensitive ACP1-GFP-labeled Plasmodium falciparum 3D7 schizont infected human erythrocytes at 1 uM 96 hrs post infection; assay type: functional, organism-based
[7] = Half life in patient with tuberculosis at 600 mg, po once daily for 15 to 18 days; assay type: ADME, organism-based; details: human, in vivo
Plasmodium falciparum [8] = assay: Antimalarial activity as 3rd generation parasitaemia after 96 hrs against chloroquine-sensitive Plasmodium falciparum 3D7 infected human erythrocytes at 1 uM 36-48 hrs post invasion; assay type: functional
Plasmodium falciparum [9] = assay: Antimalarial activity as parasitaemia against chloroquine-sensitive ACP1-GFP-labeled Plasmodium falciparum 3D7 trophozoite infected human erythrocytes at 2xIC50 dosed 96 hrs post infection; assay type: functional
Plasmodium falciparum [10] = assay: Antimalarial activity as segregation of apicoplasts against chloroquine-sensitive Plasmodium falciparum 3D7 infected human erythrocytes at 1 uM 96 hrs post infection; assay type: functional, organism-based
Plasmodium falciparum [11] = assay: Antimalarial activity as 3rd generation parasitaemia after 96 hrs against chloroquine-sensitive Plasmodium falciparum 3D7 infected human erythrocytes at 1 uM 24-36 hrs post invasion; assay type: functional
[12] = Tmax in patient with tuberculosis at 600 mg, po once daily for 15 to 18 days; assay type: ADME, organism-based; details: human, in vivo
Plasmodium falciparum [13] = assay: Antimalarial activity as arrested schizont maturation in chloroquine-sensitive Plasmodium falciparum 3D7 infected human erythrocytes after 48 hrs at 1 uM dosed 96 hrs post infection; assay type: functional, organism-based
Plasmodium falciparum [14] = assay: Antimalarial activity as 3rd generation parasitaemia after 96 hrs against chloroquine-sensitive Plasmodium falciparum 3D7 infected human erythrocytes at 1 uM 24-48 hrs post invasion; assay type: functional
Plasmodium falciparum [15] = assay: Antimalarial activity as 3rd generation parasitaemia after 96 hrs against chloroquine-sensitive Plasmodium falciparum 3D7 infected human erythrocytes at 1 uM 0-12 hrs post invasion; assay type: functional
[16] = Cmax in patient with tuberculosis at 600 mg, po once daily for 15 to 18 days; assay type: ADME, organism-based; design: dose 600 mg, route oral; details: human, in vivo
Plasmodium falciparum [17] = assay: Antimalarial activity as 3rd generation parasitaemia after 96 hrs against chloroquine-sensitive Plasmodium falciparum 3D7 infected human erythrocytes at 1 uM 12-48 hrs post invasion; assay type: functional
Plasmodium falciparum [18] = assay: Antimalarial activity as 3rd generation ring-stage chloroquine-resistant Plasmodium falciparum W2 after 48 hrs dose then 48 hrs drug-free; assay type: functional, organism-based; details: W2, 48 h, read-out: IC50
Plasmodium falciparum [19] = assay: Antimalarial activity as 3rd generation parasitaemia after 96 hrs against chloroquine-sensitive Plasmodium falciparum 3D7 infected human erythrocytes at 1 uM 12-36 hrs post invasion; assay type: functional
Plasmodium falciparum [20] = assay: Antimalarial activity as 3rd generation parasitaemia after 96 hrs against chloroquine-sensitive Plasmodium falciparum 3D7 infected human erythrocytes at 1 uM 0-36 hrs post invasion; assay type: functional
Plasmodium falciparum [21] = assay: Antimalarial activity as 3rd generation parasitaemia after 96 hrs against chloroquine-sensitive Plasmodium falciparum 3D7 infected human erythrocytes at 1 uM treated 12-24 hrs post invasion; assay type: functional
Plasmodium falciparum [22] = assay: Antimalarial activity as 3rd generation parasitaemia after 96 hrs against chloroquine-sensitive Plasmodium falciparum 3D7 infected human erythrocytes at 1 uM 0-24 hrs post invasion; assay type: functional
Plasmodium falciparum [23] = assay: Antimalarial activity as 2nd generation ring-stage chloroquine-sensitive Plasmodium falciparum 3D7 after 48 hrs by flow cytometry; assay type: functional, organism-based; details: 3D7, 48 h
Plasmodium falciparum [24] = assay: Antimalarial activity as 3rd generation parasitaemia after 96 hrs against chloroquine-sensitive Plasmodium falciparum 3D7 infected human erythrocytes at 1 uM 0-48 hrs post invasion; assay type: functional
Plasmodium falciparum [25] = assay: Antimalarial activity as 2nd generation parasitaemia after 48 hrs against chloroquine-sensitive Plasmodium falciparum 3D7 infected human erythrocytes at 6 uM 24-36 hrs post invasion; assay type: functional
Plasmodium falciparum [26] = assay: Antimalarial activity as 2nd generation parasitaemia after 48 hrs against chloroquine-sensitive Plasmodium falciparum 3D7 infected human erythrocytes at 6 uM 12-24 hrs post invasion; assay type: functional
Plasmodium falciparum [27] = assay: Antimalarial activity as 2nd generation parasitaemia after 48 hrs against chloroquine-sensitive Plasmodium falciparum 3D7 infected human erythrocytes at 6 uM 24-48 hrs post invasion; assay type: functional
Plasmodium falciparum [28] = assay: Antimalarial activity as trophozoite arrest after 24 hrs against chloroquine-sensitive Plasmodium falciparum 3D7 infected human erythrocytes at 6 uM 96 hrs post infection; assay type: functional, organism-based
Plasmodium falciparum [29] = assay: (§1) Antimalarial activity as 2nd generation parasitaemia after 48 hrs against chloroquine-sensitive Plasmodium falciparum 3D7 infected human erythrocytes at 6 uM 0-24 hrs post invasion; assay type: functional
Plasmodium falciparum [30] = assay: Antimalarial activity as 2nd generation parasitaemia after 48 hrs against chloroquine-sensitive Plasmodium falciparum 3D7 infected human erythrocytes at 6 uM 12-48 hrs post invasion; assay type: functional
Plasmodium falciparum [31] = assay: as §1; assay type: functional; remark: listed apart in the source
Plasmodium falciparum [32] = assay: Antimalarial activity as 2nd generation parasitaemia after 48 hrs against chloroquine-sensitive Plasmodium falciparum 3D7 infected human erythrocytes at 6 uM 0-48 hrs post invasion; assay type: functional
[33] = Tmax in patient with severe malaria at 200 mg, perorally; assay type: ADME, organism-based; details: human, in vivo, po
Plasmodium falciparum [34] = assay: Antimalarial activity as 2nd generation parasitaemia after 48 hrs against chloroquine-sensitive Plasmodium falciparum 3D7 infected human erythrocytes at 6 uM 36-48 hrs post invasion; assay type: functional
Plasmodium falciparum [35] = assay: Antimalarial activity as 2nd generation parasitaemia after 48 hrs against chloroquine-sensitive Plasmodium falciparum 3D7 infected human erythrocytes at 6 uM 0-12 hrs post invasion; assay type: functional
Plasmodium falciparum [36] = assay: Antimalarial activity as 2nd generation parasitaemia after 48 hrs against chloroquine-sensitive Plasmodium falciparum 3D7 infected human erythrocytes at 6 uM 12-36 hrs post invasion; assay type: functional

C[C@H]1c2cccc(O)c2C(=O)C2=C(O)[C@]3(O)C(=O)C(C(N)=O)=C(O)[C@@H](N(C)C)[C@@H]3[C@@H](O)[C@@H]21.O [DOXYCYCLINE]
Activity (Plasmodium falciparum [1]): Active
IC50 (Plasmodium falciparum [2]): 3300 nM
Activity (Plasmodium falciparum [3]): 83.6%
IC50 (Plasmodium falciparum [4]): 453 nM
Activity (Plasmodium falciparum [5]): Active
Activity (Plasmodium falciparum [6]): Active
half-life [7]: 7 h
Activity (Plasmodium falciparum [8]): 121%
Activity (Plasmodium falciparum [9]): 97.2%
Activity (Plasmodium falciparum [10]): Active
Activity (Plasmodium falciparum [11]): 41%
Tmax [12]: 2 h
Activity (Plasmodium falciparum [13]): inactive
Activity (Plasmodium falciparum [14]): 87%
Activity (Plasmodium falciparum [15]): 89%
Cmax [16]: 6.9 µM
Activity (Plasmodium falciparum [17]): 13%
IC50 (Plasmodium falciparum [18]): 211 nM
Activity (Plasmodium falciparum [19]): 12%
Activity (Plasmodium falciparum [20]): 24%
Activity (Plasmodium falciparum [21]): 44%
Activity (Plasmodium falciparum [22]): 69%
IC50 (Plasmodium falciparum [23]): 5320 nM
Activity (Plasmodium falciparum [24]): 9%

CO[C@H]1/C=C/O[C@@]2(C)Oc3c(C)c(O)c4c(O)c(c(/C=N/N5CCN(C)CC5)c(O)c4c3C2=O)NC(=O)/C(C)=C\C=C\[C@H](C)[C@H](O)[C@@H](C)[C@@H](O)[C@@H](C)[C@H](OC(C)=O)[C@@H]1C [RIFAMPIN]
Activity (Plasmodium falciparum [25]): 49%
IC50 (Plasmodium falciparum [2]): 274 nM
Activity (Plasmodium falciparum [26]): 36%
Activity (Plasmodium falciparum [27]): 25%
IC50 (Plasmodium falciparum [4]): 2830 nM
Activity (Plasmodium falciparum [28]): Active
Activity (Plasmodium falciparum [29]): 16%
Activity (Plasmodium falciparum [30]): 13%
IC50 (Plasmodium falciparum [18]): 528 nM
Activity (Plasmodium falciparum [31]): 14%
Activity (Plasmodium falciparum [32]): 15%
IC50 (Plasmodium falciparum [23]): 2990 nM
Tmax [33]: 1 h
Activity (Plasmodium falciparum [34]): 93%
Activity (Plasmodium falciparum [35]): 65%
Activity (Plasmodium falciparum [36]): 13%
